These results are taken from ChEMBL document CHEMBL1131545, “A practical synthesis of 3-substituted delta 3,5(6)-steroids as new potential 5 alpha-reductase inhibitor” (Bioorg Med Chem Lett, 1998).

For assay [1], the target named is T1, Steroid 5-alpha-reductase (Rattus norvegicus, UniProt P24008+P31214).
T1 sequence (P24008 whole entry): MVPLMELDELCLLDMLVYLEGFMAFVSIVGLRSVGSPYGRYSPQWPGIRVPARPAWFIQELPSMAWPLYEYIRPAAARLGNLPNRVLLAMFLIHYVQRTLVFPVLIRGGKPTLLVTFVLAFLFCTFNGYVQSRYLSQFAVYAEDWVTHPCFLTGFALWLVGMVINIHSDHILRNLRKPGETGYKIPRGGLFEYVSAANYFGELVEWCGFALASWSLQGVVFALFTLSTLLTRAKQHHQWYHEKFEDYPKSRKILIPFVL
T1 sequence (P31214 whole entry): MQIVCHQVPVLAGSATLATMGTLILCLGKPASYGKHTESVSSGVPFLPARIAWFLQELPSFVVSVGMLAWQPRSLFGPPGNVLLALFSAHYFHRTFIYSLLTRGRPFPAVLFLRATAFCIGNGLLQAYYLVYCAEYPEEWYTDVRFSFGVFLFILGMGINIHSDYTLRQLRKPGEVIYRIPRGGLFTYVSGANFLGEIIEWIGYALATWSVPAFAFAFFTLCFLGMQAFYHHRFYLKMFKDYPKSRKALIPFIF
The experiment in a line: Ability to inhibit Steroid 5-alpha-reductase in rat using Enzyme kinetics method.

Assay [2] concerns the target T1, Steroid 5-alpha-reductase. Kind of assay: Ability to inhibit Steroid 5-alpha-reductase in rat using Isotope method [3H]T to [3H]-DHT].

A word on the Ki: it is a measure of affinity in units of concentration, obtained from inhibition or displacement. High values mean lower affinity, low ones higher affinity. As to `CC(=O)C1=CC2=CCC3C(CC[C@@]4(C)C3CC[C@@H]4C(=O)NC(C)(C)C)[C@@]2(C)CC1` (some centres not stated), the Ki in assay [1] and in assay [2] was >> 1000 nM each time.
`CCOP(=O)(OCC)C1=CC2=CCC3C(CC[C@@]4(C)C3CC[C@@H]4C(=O)NC(C)(C)C)[C@@]2(C)CC1` (some centres not stated): the Ki is reported as 18.1 nM in assay [1] and 68.5 nM in assay [2].
With `CC(C)(C)NC(=O)[C@H]1CCC2C3CC=C4C=CCC[C@]4(C)C3CC[C@@]21C` (some centres not stated), the Ki in assay [1] and in assay [2] was >> 1000 nM each time.
Regarding `CCN(CC)C(=O)C1=CC2=CCC3C(CC[C@@]4(C)C3CC[C@@H]4C(=O)NC(C)(C)C)[C@@]2(C)CC1` (some centres not stated), the Ki in assay [1] and in assay [2] was >> 1000 nM throughout.
As to `CC(C)(C)NC(=O)[C@H]1CCC2C3CC=C4C=C(C#Cc5ccccc5)CC[C@]4(C)C3CC[C@@]21C` (some centres not stated), the figures for the Ki in assay [1] and in assay [2] were 45.8 nM and 100.2 nM, respectively.
Taken in the same sequence, the figures for `CC(C)(C)NC(=O)[C@H]1CC[C@H]2[C@@H]3CC[C@H]4NC(=O)C=C[C@]4(C)[C@H]3CC[C@]12C` [FINASTERIDE] were 54.7 nM and 88.2 nM.
